IC50 data for 13 molecules are collected here from patent publication US8501732B2, “Aminomethyl quinolone compounds” (Hoffmann-La Roche Inc., priority 2011, dated 2013).

The IC50 is the midpoint of a concentration-inhibition curve. A lower IC50 goes with greater potency in that assay.

The target in the first experiment is JNK1 (Homo sapiens (Human), UniProt P45983). In words: In Vitro JNK1 Assay (TR-FRET, phosphorylation of GST-c-Jun). The class given is biochemical.
Sequence of JNK1 (P45983 whole entry): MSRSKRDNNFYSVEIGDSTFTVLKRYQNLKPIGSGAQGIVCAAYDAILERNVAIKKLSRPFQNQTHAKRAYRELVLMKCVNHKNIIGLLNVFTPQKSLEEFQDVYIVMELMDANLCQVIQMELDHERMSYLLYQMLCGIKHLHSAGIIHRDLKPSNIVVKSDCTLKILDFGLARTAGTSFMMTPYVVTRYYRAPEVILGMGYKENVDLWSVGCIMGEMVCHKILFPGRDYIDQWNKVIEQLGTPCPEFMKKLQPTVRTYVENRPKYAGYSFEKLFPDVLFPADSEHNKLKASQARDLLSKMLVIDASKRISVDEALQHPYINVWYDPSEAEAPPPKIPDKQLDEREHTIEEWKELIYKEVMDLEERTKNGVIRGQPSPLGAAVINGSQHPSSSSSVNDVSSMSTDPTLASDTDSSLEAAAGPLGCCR
Conditions: not given
The protocol:
Phosphorylation of GST-c-Jun protein (amino acid residues 1-79) was measured as JNK1 activity. […] The reaction buffer contained 50 mM HEPES, pH […], 1 mM DTT, 0.1 mM Na3VO4 and 0.2 mg/mL BSA. After 30 min. incubation at room temperature, the reaction was terminated by adding buffer containing 8 mM EDTA and a polyclonal anti-phospho-c-Jun antibody (Cell Signaling #9261L), followed by an additional incubation of 30 min. at room temperature. […] Time-resolved Fluorescence Resonance Energy Transfer (TR-FRET) signals were measured 1 hr. later on the EnVision reader (Perkin Elmer). Compound potency was assessed at 10 serially diluted concentrations. Percentage of inhibition at each concentration was determined to generate an IC50 value for each compound.
For orientation: In TR-FRET formats the signal depends on donor and acceptor labels being close together.
Consider `O=C(NCc1cn(-c2ccccc2)c2cc(Cl)ccc2c1=O)NC1CCN(C(=O)Oc2ccccc2)CC1` [Example I-193, 4-[3-(7-Chloro-4-oxo-1-phenyl-1,4-dihydro-quinolin-3-ylmethyl)-ureido]-piperidine-yl-carboxylic acid phenyl ester], for which the midpoint of inhibition, the IC50, lay at 180 nM.

Turning to `COC(=O)c1c(CNC(=O)Oc2ccccc2)c(=O)c2ccc(Cl)cc2n1-c1ccccc1` [Example I-210, 7-Chloro-4-oxo-3-(phenoxycarbonylamino-methyl)-1-phenyl-1,4-dihydro-quinoline-2-carboxylic acid methyl ester], the IC50 turned out to be 1100 nM.

Still in this experiment, the particulars now being: 0.2 nM active JNK1 kinase, 26.7 nM GST-c-Jun, 2 μM ATP, 30 min at room temperature.
In turn, `N#C/N=C(/NCc1cn(-c2ccccc2)c2cc(Cl)ccc2c1=O)N1CCOCC1` [Example I-177, [(7-Chloro-4-oxo-1-phenyl-1,4-dihydro-quinolin-3-ylmethyl)-amino]-morpholin-4-yl-methylene-cyanamide] came in with a half-maximal inhibitory concentration (IC50) of 1200 nM.

For the molecule `COc1ccccc1Cn1ccc(C(=O)NCc2cn(-c3ccccc3)c3cc(Cl)ccc3c2=O)cc1=O` [Example I-48, 1-(2-Methoxy-benzyl)-2-oxo-1,2-dihydro-pyridine-4-carboxylic acid (7-chloro-4-oxo-1-phenyl-1,4-dihydro-quinolin-3-ylmethyl)-amide], the IC50 was found to be 180 nM.

With `O=C(NCc1cn(-c2ccccc2)c2cc(Cl)ccc2c1=O)N1CCCCC1` [Example I-188, Piperidine-1-carboxylic acid (7-chloro-4-oxo-1-phenyl-1,4-dihydro-quinolin-3-yl-methyl)-amide], the concentration for half-maximal inhibition (IC50) was determined as 1700 nM.

The molecule `O=C(NCc1cn(-c2ccccc2)c2cc(Cl)ccc2c1=O)NC1C2CC3CC1CC(O)(C3)C2` (stereo not shown) [Example I-191, 1-(7-Chloro-4-oxo-1-phenyl-1,4-dihydro-quinolin-3-ylmethyl)-3-(5-hydroxy-adamantan-2-yl)-urea] yielded an IC50 of 240 nM.

Turning to `COC(=O)c1ccc(NC(=O)NCc2cn(-c3ccccc3)c3cc(Cl)ccc3c2=O)cc1` [Example I-206, 4-[3-(7-Chloro-4-oxo-1-phenyl-1,4-dihydro-quinolin-3-ylmethyl)-ureido]-benzoic acid methyl ester], the 50% inhibitory concentration (IC50) was determined as 2700 nM.

Molecule `O=C(NCc1cn(-c2ccccc2)c2cc(Cl)ccc2c1=O)c1cc(F)ccc1F` [Example I-60, N-(7-Chloro-4-oxo-1-phenyl-1,4-dihydro-quinolin-3-ylmethyl)-2,5-difluoro-benzamide] gave a half-inhibitory concentration (IC50) of 1900 nM. The IC50 values of the last two molecules are within 1.5-fold of each other.

Molecule `O=C(NCc1cn(-c2ccccc2)c2cc(Cl)ccc2c1=O)c1cnc(N2CCOCC2)nc1` [Example I-56, 2-Morpholin-4-yl-pyrimidine-5-carboxylic acid (7-chloro-4-oxo-1-phenyl-1,4-dihydro-quinolin-3-ylmethyl)-amide] yielded a concentration for half-maximal inhibition (IC50) of 190 nM.

`O=C(NCc1cn(-c2ccccc2)c2cc(Cl)ccc2c1=O)c1cn(Cc2ccccc2)nn1` [Example I-55, 1-Benzyl-1H-[1,2,3]triazole-4-carboxylic acid (7-chloro-4-oxo-1-phenyl-1,4-dihydro-quinolin-3-ylmethyl)-amide]: the IC50 was 700 nM.

In the case of `CC(=O)N1CCC(NC(=O)NCc2cn(-c3ccccc3)c3cc(Cl)ccc3c2=O)CC1` [Example I-198, 1-(1-Acetyl-piperidin-4-yl)-3-(7-chloro-4-oxo-1-phenyl-1,4-dihydro-quinolin-3-ylmethyl)-urea], the IC50 worked out at 2200 nM.

As for `CN1CCN(c2ccc(C(=O)NCc3cn(-c4ccccc4)c4cc(Cl)ccc4c3=O)cn2)CC1` [Example I-88, N-(7-Chloro-4-oxo-1-phenyl-1,4-dihydro-quinolin-3-ylmethyl)-6-(4-methyl-piperazin-1-yl)-nicotinamide], the IC50 was 250 nM.

Take `O=C(NCc1cn(-c2ccccc2)c2cc(Cl)ccc2c1=O)c1ccc(=O)n(Cc2ccccc2)c1` [Example I-52, 1-Benzyl-6-oxo-1,6-dihydro-pyridine-3-carboxylic acid (7-chloro-4-oxo-1-phenyl-1,4-dihydro-quinolin-3-ylmethyl)-amide]: 380 nM corresponded to half-maximal inhibition (IC50).
